Results reported in US20240294495A1, “COMPOUNDS THAT MEDIATE PROTEIN DEGRADATION AND METHODS OF USE THEREOF” (Monte Rosa Therapeutics, Inc., priority 2021, published 2024).

Legend:
GSPT1 = biological target: T1, GSPT1 (Homo sapiens, UniProt P15170+Q96SW2); assay: Immunofluorescence assay for GSPT1 degradation in CAL-51 cells; assay type: cell-based; settings: 6 h treatment, read-out: IF Class (GSPT1 degradation, DC50)
T1 construct: CAL-51 cells were purchased from DSMZ (cat. Number ACC302); endogenous in cells; host or cells: CAL-51 (DSMZ ACC302)
T1 sequence (P15170 whole entry): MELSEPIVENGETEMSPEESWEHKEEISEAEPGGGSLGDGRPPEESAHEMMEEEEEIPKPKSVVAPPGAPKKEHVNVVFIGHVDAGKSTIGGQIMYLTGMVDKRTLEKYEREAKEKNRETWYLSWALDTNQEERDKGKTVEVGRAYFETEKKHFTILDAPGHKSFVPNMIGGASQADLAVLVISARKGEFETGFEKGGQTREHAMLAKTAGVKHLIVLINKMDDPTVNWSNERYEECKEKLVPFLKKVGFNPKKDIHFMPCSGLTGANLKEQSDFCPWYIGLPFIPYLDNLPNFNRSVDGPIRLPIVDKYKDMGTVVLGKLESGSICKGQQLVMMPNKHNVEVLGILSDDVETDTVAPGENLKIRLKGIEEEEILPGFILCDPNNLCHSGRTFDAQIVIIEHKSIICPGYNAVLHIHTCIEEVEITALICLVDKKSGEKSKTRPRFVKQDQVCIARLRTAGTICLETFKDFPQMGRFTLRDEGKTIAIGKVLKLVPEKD
T1 sequence (Q96SW2 whole entry): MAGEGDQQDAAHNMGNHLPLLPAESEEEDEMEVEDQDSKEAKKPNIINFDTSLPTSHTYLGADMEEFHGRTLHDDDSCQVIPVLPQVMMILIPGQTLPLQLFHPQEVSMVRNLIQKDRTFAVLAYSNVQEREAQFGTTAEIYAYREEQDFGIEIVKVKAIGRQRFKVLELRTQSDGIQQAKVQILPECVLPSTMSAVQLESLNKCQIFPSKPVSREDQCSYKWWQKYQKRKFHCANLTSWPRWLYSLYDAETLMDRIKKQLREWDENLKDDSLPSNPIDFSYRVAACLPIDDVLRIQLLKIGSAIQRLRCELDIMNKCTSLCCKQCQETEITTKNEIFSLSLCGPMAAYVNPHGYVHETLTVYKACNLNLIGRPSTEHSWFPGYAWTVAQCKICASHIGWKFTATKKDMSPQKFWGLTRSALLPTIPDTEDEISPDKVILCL
T1 sequence (Q16531 2-1140 partner limits assumed): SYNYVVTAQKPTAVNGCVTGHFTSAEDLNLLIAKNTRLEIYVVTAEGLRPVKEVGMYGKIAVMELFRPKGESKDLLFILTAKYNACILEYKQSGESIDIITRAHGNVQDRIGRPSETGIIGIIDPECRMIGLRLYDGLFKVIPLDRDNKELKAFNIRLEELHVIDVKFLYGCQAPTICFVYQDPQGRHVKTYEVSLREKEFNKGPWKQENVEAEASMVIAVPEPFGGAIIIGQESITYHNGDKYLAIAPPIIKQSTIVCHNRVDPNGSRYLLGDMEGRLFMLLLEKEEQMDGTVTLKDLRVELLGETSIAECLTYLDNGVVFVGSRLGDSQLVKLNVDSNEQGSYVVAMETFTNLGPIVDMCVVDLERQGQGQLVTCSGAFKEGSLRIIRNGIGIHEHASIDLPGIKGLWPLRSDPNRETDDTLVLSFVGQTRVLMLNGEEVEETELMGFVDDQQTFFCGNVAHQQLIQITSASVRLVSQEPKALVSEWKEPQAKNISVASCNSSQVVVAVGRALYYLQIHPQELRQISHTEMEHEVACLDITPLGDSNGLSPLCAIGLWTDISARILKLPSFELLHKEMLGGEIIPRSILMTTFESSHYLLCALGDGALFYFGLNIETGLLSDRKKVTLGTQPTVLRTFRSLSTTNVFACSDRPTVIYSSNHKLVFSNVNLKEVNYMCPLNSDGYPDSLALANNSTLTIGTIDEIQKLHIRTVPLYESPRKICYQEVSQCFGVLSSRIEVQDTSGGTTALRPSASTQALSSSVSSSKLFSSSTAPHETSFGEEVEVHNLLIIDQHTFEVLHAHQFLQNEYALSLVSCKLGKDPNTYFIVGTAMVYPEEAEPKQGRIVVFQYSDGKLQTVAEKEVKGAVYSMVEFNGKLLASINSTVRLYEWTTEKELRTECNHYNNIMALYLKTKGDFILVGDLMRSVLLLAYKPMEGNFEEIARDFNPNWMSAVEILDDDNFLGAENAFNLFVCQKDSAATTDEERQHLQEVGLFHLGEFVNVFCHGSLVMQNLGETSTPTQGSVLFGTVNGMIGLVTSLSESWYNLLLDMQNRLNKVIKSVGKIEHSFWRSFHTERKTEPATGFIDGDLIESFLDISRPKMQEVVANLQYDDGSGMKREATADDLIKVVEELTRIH
Protocol: The representative compounds were tested in an immunofluorescence assay for their activity to degrade GSPT1. CAL-51 cells were purchased from DSMZ (cat. Number ACC302), sub-cultured in 90% Dulbecco's MEM (4.5 g/L glucose, Gibco 11965)+10% heat inactivated FBS (BioConcept, 2-01F136I) and incubated at 37° C., 5% CO2. For the assay imaging microtiter plate Cell Carrier 96 Ultra (Perkin Elmer 6055302) were pre-coated with Fibronectin (Sigma F085, 30 μl at 0.2 μg/mL) in PBS (100 μL, Gibco 14190) for 45 min at room temperature, rinsed with PBS and CAL-51 cells (30K cells/well) were plated and let to adhere overnight. Cells were treated with compounds typically using a serial dilution ranging from 30 μM to 0.1 nM for 6 h. Compounds were stored at 10 mM DMSO stocks. Vehicle (DMSO), positive (CC-885, 10 μM) and rescue controls (positive control plus 0.2 μM bortezomib) were also included at this stage. Cells were subsequently rinsed with PBS and fixed in 10% Formalin solution (50 μl, Sigma HT5011)) for 20 min at room temperature. Following three consecutive PBS washes (100 μL), cells were permeabilized in 0.1% Triton X-100 in PBS (Sigma 93443, 50 μl) for 15 min at room temperature. Following three further PBS washes, 50 μl blocking buffer (1% BSA, Sigma A4503, in PBS) was added for 45 min for signal-to noise reduction. Primary antibody (human GSPT1, Sigma HPA052488) was diluted in blocking buffer (dil.1/300, 35 μL/well) and incubated with the cells overnight at 4° C. After three PBS washes, Alexa-fluor 488 coupled secondary antibodies (Invitrogen, A32731, dil.1/1000), Alexa-fluor 647-Phalloidin (Invitrogen, A22287, dil.1/200) and DAPI (Thermo, #62248, dil.1/1000) were diluted in blocking buffer and incubated with the samples for 2 h at room temperature. After three final PBS washes, samples were conserved in 100 μL PBS in the dark, until measurement. Image acquisition was performed on the Operetta High-Content Imager (Perkin-Elmer). Fluorescence intensity of […] (GSPT1), Alexa-Fluor 647 (Actin) and DAPI (Nucleus) were measured. For the determination of GSPT1 DC50 values, a custom algorithm implemented in the PerkinElmer image analysis software Harmony-Acapella® was developed. After user-defined setting of adjustment parameters, the analysis was run identically without human intervention for all image fields. DAPI staining of the nuclei was used to determine the location of cells using standard nuclei detection modules. Segmentation artifacts were removed by threshold-based filters for area, roundness and intensity. The outline of the cells was determined analogously from the sum of the normalized, smoothed DAPI and Actin channel, starting from each nucleus. The Alexa-Fluor 488 (GSPT1) signal intensity in each cell was finally measured, in order to obtain a Mean intensity per cell. GSPT1 degradation (DC50) was calculated after normalization to controls and data import in CDD vault Database, using non-linear regression.
(§1) In Table 2, each compound is assigned a class (HTRF class) indicating the ability for Cereblon binding by means of their HTRF IC50 values according to Example 3: A, B or C. According to the code, A represents an IC50 value of <100 nM, B represents an IC50 value>100 nM and <1000 nM, C represents an IC50 value>1000 nM. IF Class assigns each compound a code indicating the ability for GSPT1 degradation: A, B or C. According to the code, A represents a DC50 value of <30 nM, B represents a DC50 value>30 nM and <300 nM and C represents a DC50 value of >300 nM.

CRBN-DDB1 = CRBN-DDB1 (Homo sapiens, UniProt Q96SW2); assay: Compound binding to CRBN by HTRF assay; settings: CRBN-DDB1 2.5 nM, Cy5-Thalidomide 100 nM probe, 30 min incubation; read-out: HTRF Class (Cereblon binding, HTRF IC50)
Sequence of CRBN-DDB1 (Q96SW2 whole entry): as the sequence (Q96SW2 whole entry) above
Sequence of CRBN-DDB1 (Q16531 whole entry partner): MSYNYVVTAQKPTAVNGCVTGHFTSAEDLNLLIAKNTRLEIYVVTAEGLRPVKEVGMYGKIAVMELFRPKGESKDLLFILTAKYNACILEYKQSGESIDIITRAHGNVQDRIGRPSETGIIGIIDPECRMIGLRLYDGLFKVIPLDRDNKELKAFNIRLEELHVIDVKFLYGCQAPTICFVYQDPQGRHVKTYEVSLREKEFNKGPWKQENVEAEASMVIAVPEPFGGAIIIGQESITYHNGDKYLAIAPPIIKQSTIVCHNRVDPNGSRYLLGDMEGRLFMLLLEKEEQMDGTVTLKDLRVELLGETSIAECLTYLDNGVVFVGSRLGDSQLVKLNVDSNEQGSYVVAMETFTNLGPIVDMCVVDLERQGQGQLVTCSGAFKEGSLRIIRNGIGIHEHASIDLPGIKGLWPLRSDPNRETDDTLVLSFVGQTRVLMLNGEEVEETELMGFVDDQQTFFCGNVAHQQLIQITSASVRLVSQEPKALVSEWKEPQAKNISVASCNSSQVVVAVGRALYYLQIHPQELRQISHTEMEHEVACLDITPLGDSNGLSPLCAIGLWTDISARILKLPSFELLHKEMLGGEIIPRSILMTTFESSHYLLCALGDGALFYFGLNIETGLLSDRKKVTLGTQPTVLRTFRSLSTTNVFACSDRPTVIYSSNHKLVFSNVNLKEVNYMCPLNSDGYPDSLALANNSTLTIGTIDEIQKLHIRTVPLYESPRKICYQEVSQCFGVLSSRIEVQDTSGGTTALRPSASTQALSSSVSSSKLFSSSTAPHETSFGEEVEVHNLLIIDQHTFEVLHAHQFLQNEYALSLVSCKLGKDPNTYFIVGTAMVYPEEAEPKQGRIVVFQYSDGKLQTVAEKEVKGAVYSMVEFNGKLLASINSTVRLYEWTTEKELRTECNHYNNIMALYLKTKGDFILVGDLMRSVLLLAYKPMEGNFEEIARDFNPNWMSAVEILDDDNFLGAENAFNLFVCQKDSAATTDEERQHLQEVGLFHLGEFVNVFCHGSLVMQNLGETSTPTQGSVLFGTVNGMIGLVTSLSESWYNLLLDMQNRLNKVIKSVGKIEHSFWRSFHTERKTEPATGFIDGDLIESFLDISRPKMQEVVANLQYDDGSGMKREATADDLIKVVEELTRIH
Protocol: Compound activity was monitored in a Homogenous Time-Resolved Fluorescence (HTRF) assay using 1-[5-({2-[2-(2-{[2-(2,6-dioxopiperidin-3-yl)-1,3-dioxo-2,3-dihydro-1H-isoindol-4-yl]oxy}acetamido)ethoxy]ethyl}carbamoyl)pentyl]-3,3-dimethyl-2-[(1E,3E)-5-[(2E)-1,3,3-trimethyl-5-sulfo-2,3-dihydro-1H-indol-2-ylidene]penta-1,3-dien-1-yl]-3H-indol-1-ium-5-sulfonate as a fluorescent probe. Biochemical assays were conducted in Greiner white 384 well HiBase plates (Cat. No 784075-25) in 10 μL total volume. A one pot detection solution of CRBN-DDB1 (2.5 nM), Anti-His Terbium Cryptate Gold (1×, PerkinElmer Cat. #: 61HI2TLB), and Cy5-Thalidomide (100 nM, Tenova Cat.: T52461) was prepared in 20 mM HEPES, 20 mM NaCl, 0.2 mM TCEP, 0.2 mM EDTA, and 0.005% Tween20 was dispensed to each assay plate. Compounds were stored in dry, ambient temperatures at 10 mM. A 10-point, 1:3 dilution series was prepared from 10 mM stock concentrations in Echo-compatible LDV plates. 10 nL of each compound dilution series was dispensed into assays wells using an Echo 650 (Labcyte inc. USA). 10 nL of 10 mM Lenalidomide was transferred into the active-control wells for the assay and 10 nL of DMSO was transferred into the neutral-control wells. The assay was then allowed to incubate for 30 min at ambient temperature after transferring compound. Plate measurements were taken on a Pherastar FSX (BMG Labtech, Germany) using the HTRF Red filter (Ex. 337 nm, em1: 620 nm, em2: 665 nm) (Flashes: 50, Integration time: 60-400 us, Z-height: 10 mm, Ratio-multiplier: 10,000). The HTRF signal was then subsequently normalized to the neutral and active controls. Analysis and IC50 values were derived using KNIME analytics (KNIME Zurich) transformation and fitting within Collaborative Drug Discovery (Collaborative Drug Discovery USA). Ki was derived from the geometric mean of the IC50 values using the Cheng-Prustoff transformation.
as §1

Row | Structure (SMILES) | DC50 (GSPT1) [nM] | IC50 (CRBN-DDB1) [nM]
1 | O=C1CCC(c2c(F)cc(N3CC(NC(=O)Cc4ccc5c(c4)OCC5)C3)cc2F)C(=O)N1 (stereo not drawn) [Compound 24, 2-(2,3-dihydrobenzofuran-6-yl)-N-(1-(4-(2,6-dioxopiperidin-3-yl)-3,5-difluorophenyl)azetidin-3-yl)acetamide] | > 300 | 100 to 1000
2 | Cc1nc(CC(=O)NC2CN(c3cc(F)c(C4CCC(=O)NC4=O)c(F)c3)C2)ccc1Cl (stereo not drawn) [Compound 25, 2-(5-chloro-6-methylpyridin-2-yl)-N-(1-(4-(2,6-dioxopiperidin-3-yl)-3,5-difluorophenyl)azetidin-3-yl)acetamide] | > 300 | 100 to 1000
3 | O=C1CCC(c2c(F)cc(N3CC(NC(=O)Cc4cc(F)cc(OC(F)F)c4)C3)cc2F)C(=O)N1 (stereo not drawn) [Compound 26, 2-(3-(difluoromethoxy)-5-fluorophenyl)-N-(1-(4-(2,6-dioxopiperidin-3-yl)-3,5-difluorophenyl)azetidin-3-yl)acetamide] | > 300 | 100 to 1000
4 | COc1cc(Cl)ccc1CC(=O)NC1CN(c2cc(F)c(C3CCC(=O)NC3=O)c(F)c2)C1 (stereo not drawn) [Compound 27, 2-(4-chloro-2-methoxyphenyl)-N-(1-(4-(2,6-dioxopiperidin-3-yl)-3,5-difluorophenyl)azetidin-3-yl)acetamide] | 30 to 300 | 100 to 1000
5 | O=C1CCC(c2c(F)cc(N3CC(NC(=O)Cc4cccc(OC(F)(F)F)c4)C3)cc2F)C(=O)N1 (stereo not drawn) [Compound 28, N-(1-(4-(2,6-dioxopiperidin-3-yl)-3,5-difluorophenyl)azetidin-3-yl)-2-(3-(trifluoromethoxy)phenyl) acetamide] | 30 to 300 | 100 to 1000
6 | Cc1cc(C)cc(CC(=O)NC2CN(c3cc(F)c(C4CCC(=O)NC4=O)c(F)c3)C2)c1 (stereo not drawn) [Compound 29, 2-(3,5-dimethylphenyl)-N-(1-(4-(2,6-dioxopiperidin-3-yl)-3,5-difluorophenyl)azetidin-3-yl)acetamide] | < 30 | 100 to 1000
7 | Cc1cc(CC(=O)NC2CN(c3cc(F)c(C4CCC(=O)NC4=O)c(F)c3)C2)ccc1F (stereo not drawn) [Compound 30, N-(1-(4-(2,6-dioxopiperidin-3-yl)-3,5-difluorophenyl)azetidin-3-yl)-2-(4-fluoro-3-methylphenyl)acetamide] | 30 to 300 | 100 to 1000
8 | O=C1CCC(c2c(F)cc(N3CC(NC(=O)Cc4ccc(Cl)cc4F)C3)cc2F)C(=O)N1 (stereo not drawn) [Compound 31, 2-(4-chloro-2-fluorophenyl)-N-(1-(4-(2,6-dioxopiperidin-3-yl)-3,5-difluorophenyl)azetidin-3-yl)acetamide] | 30 to 300 | 100 to 1000
9 | O=C1CCC(c2c(F)cc(N3CC(NC(=O)Cc4cccc(Cl)c4)C3)cc2F)C(=O)N1 (stereo not drawn) [Compound 32, 2-(3-chlorophenyl)-N-(1-(4-(2,6-dioxo-3-piperidyl)-3,5-difluoro-phenyl)azetidin-3-yl)acetamide] | 30 to 300 | 100 to 1000
10 | Cc1cc(CC(=O)NC2CN(c3ccc(C4CCC(=O)NC4=O)c(Cl)c3)C2)ccc1Cl (stereo not drawn) [Compound 33, 2-(4-chloro-3-methylphenyl)-N-(1-(3-chloro-4-(2,6-dioxopiperidin-3-yl)phenyl)azetidin-3-yl)acetamide] | 30 to 300 | 100 to 1000
11 | O=C1CCC(c2c(F)cc(N3CC(NC(=O)Cc4ccc(Cl)cc4)C3)cc2F)C(=O)N1 (stereo not drawn) [Compound 36, 2-(4-chlorophenyl)-N-(1-(4-(2,6-dioxopiperidin-3-yl)-3,5-difluorophenyl)azetidin-3-yl)acetamide] | > 300 | 100 to 1000
12 | Cc1ccc(NC(=O)CC2CN(c3cc(F)c(C4CCC(=O)NC4=O)c(F)c3)C2)cc1Cl (stereo not drawn) [Compound 40, N-(3-chloro-4-methylphenyl)-2-(1-(4-(2,6-dioxopiperidin-3-yl)-3,5-difluorophenyl)azetidin-3-yl)acetamide] | < 30 | > 1000
13 | N#Cc1ccc(CC(=O)NC2CN(c3cc(F)c(C4CCC(=O)NC4=O)c(F)c3)C2)c(F)c1 (stereo not drawn) [Compound 47, 2-(4-cyano-2-fluorophenyl)-N-(1-(4-(2,6-dioxopiperidin-3-yl)-3,5-difluorophenyl)azetidin-3-yl)acetamide] | > 300 | 100 to 1000
14 | N#Cc1ccc(CC(=O)NC2CN(c3cc(F)c(C4CCC(=O)NC4=O)c(F)c3)C2)cc1Cl (stereo not drawn) [Compound 48, 2-(3-chloro-4-cyanophenyl)-N-(1-(4-(2,6-dioxopiperidin-3-yl)-3,5-difluorophenyl)azetidin-3-yl)acetamide] | > 300 | < 100
15 | Cc1cc(CC(=O)NC2CN(c3cc(F)c(C4CCC(=O)NC4=O)c(F)c3)C2)cc(C)n1 (stereo not drawn) [Compound 49, 2-(2,6-dimethylpyridin-4-yl)-N-(1-(4-(2,6-dioxopiperidin-3-yl)-3,5-difluorophenyl)azetidin-3-yl)acetamide] | > 300 | 100 to 1000
16 | Cc1cc(C)cc(C(F)(F)C(=O)NC2CN(c3cc(F)c(C4CCC(=O)NC4=O)c(F)c3)C2)c1 (stereo not drawn) [Compound 50, 2-(3,5-dimethylphenyl)-N-(1-(4-(2,6-dioxopiperidin-3-yl)-3,5-difluorophenyl)azetidin-3-yl)-2,2-difluoroacetamide] | > 300 | 100 to 1000
17 | Cc1cc(C)nc(CC(=O)NC2CN(c3cc(F)c(C4CCC(=O)NC4=O)c(F)c3)C2)c1 (stereo not drawn) [Compound 51, 2-(4,6-dimethylpyridin-2-yl)-N-(1-(4-(2,6-dioxopiperidin-3-yl)-3,5-difluorophenyl)azetidin-3-yl) acetamide] | > 300 | 100 to 1000
18 | Cc1cc(Cl)ccc1CC(=O)NC1CN(c2cc(F)c(C3CCC(=O)NC3=O)c(F)c2)C1 (stereo not drawn) [Compound 52, 2-(4-chloro-2-methylphenyl)-N-(1-(4-(2,6-dioxopiperidin-3-yl)-3,5-difluorophenyl)azetidin-3-yl)acetamide] | 30 to 300 | 100 to 1000
